≈ marks a conversion by molar mass, not a printed value. Calls of active or inactive are those of the source. No cut-off for these calls is given here.
How the values were obtained:
[1] = target: Histone-lysine N-methyltransferase SUV39H1 (Homo sapiens) (UniProt O43463); experiment: Inhibition of human SUV39H1 at 100 uM using histone H3 as substrate incubated for 1 hr in presence of [3H]-SAM by filter binding method relative to control
[2] = target: Histone-lysine N-methyltransferase SETD7 (Homo sapiens) (UniProt Q8WTS6); experiment: Inhibition of human SET7/9 at 100 uM using core histone as substrate incubated for 1 hr in presence of [3H]-SAM by filter binding method relative to control
Histone-lysine N-methyltransferase SETD7 (Homo sapiens), sequence (Q8WTS6 whole entry): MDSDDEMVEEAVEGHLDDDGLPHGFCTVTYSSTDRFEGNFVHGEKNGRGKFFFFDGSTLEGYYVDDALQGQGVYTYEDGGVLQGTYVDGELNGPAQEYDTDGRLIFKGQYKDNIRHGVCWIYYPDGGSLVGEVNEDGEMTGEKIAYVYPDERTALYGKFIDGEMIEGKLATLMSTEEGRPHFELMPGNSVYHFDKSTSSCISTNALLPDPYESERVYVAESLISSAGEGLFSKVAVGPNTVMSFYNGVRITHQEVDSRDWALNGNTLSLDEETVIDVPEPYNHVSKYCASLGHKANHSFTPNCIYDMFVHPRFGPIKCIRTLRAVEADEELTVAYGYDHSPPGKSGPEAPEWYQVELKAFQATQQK

[3] = target: Protein arginine N-methyltransferase 1 (Homo sapiens) (UniProt Q99873); experiment: Inhibition of human PRMT1 at 100 uM using histone H4 as substrate incubated for 1 hr in presence of [3H]-SAM by filter binding method relative to control
Protein arginine N-methyltransferase 1 (Homo sapiens), sequence (Q99873 whole entry, looked up, the tested form may be a part): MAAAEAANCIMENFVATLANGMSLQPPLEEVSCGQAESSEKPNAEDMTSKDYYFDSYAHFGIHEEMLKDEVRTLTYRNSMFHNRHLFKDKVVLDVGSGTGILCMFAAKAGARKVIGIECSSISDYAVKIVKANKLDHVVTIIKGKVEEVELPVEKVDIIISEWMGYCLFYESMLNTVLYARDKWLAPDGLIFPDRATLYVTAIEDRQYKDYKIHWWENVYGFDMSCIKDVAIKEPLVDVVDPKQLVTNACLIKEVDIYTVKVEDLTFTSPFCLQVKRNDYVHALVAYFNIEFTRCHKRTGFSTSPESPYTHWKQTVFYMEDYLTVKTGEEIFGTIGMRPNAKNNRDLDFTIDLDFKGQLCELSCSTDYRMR

[4] = target: Histone-lysine N-methyltransferase EHMT2 (Homo sapiens) (UniProt Q96KQ7); experiment: Inhibition of human G9a at 100 uM using core histone H3 (1 to 21 residues) as substrate incubated for 1 hr in presence of [3H]-SAM by filter binding method relative to control
Homo sapiens [5] = organism: Homo sapiens; experiment: Selectivity ratio of IC50 for human HDAC8 to IC50 for human HDAC6
Homo sapiens [6] = organism: Homo sapiens; experiment: Selectivity ratio of IC50 for human HDAC2 to IC50 for human HDAC6
Homo sapiens [7] = organism: Homo sapiens; experiment: Selectivity ratio of IC50 for human HDAC3 to IC50 for human HDAC6
[8] = target: Histone deacetylase 7 (Homo sapiens) (UniProt Q8WUI4); experiment: Inhibition of human HDAC7 at 10 uM using Acetyl-Lys (trifluoroacetyl)-AMC) as substrate incubated for 2 hrs by fluorescence assay
Histone deacetylase 7 (Homo sapiens), sequence (Q8WUI4 whole entry): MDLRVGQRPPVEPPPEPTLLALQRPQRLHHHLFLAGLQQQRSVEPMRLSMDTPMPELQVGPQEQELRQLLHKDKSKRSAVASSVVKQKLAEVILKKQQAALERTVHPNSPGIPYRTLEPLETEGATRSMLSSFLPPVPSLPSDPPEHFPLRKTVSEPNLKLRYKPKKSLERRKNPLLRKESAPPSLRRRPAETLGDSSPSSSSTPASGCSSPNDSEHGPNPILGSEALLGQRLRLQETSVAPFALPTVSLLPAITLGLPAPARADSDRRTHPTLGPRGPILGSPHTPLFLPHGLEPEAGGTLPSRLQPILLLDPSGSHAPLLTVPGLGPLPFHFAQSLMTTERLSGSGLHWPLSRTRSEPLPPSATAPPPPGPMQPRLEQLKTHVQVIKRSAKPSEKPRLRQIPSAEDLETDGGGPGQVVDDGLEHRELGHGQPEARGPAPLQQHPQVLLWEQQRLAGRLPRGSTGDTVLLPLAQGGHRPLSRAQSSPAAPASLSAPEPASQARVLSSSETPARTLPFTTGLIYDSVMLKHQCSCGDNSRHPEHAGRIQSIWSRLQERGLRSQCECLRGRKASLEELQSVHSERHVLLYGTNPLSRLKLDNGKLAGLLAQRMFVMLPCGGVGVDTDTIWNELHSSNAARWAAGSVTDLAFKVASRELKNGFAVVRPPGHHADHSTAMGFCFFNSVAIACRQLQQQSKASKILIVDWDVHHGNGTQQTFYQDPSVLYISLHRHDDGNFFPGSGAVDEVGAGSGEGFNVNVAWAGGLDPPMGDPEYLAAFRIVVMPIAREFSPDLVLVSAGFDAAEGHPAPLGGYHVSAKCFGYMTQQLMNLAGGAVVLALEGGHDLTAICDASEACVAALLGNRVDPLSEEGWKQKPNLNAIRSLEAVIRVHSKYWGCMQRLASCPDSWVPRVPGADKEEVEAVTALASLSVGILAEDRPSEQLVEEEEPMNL

[9] = target: Histone deacetylase 5 (Homo sapiens) (UniProt Q9UQL6); experiment: Inhibition of human HDAC5 at 10 uM using Acetyl-Lys (trifluoroacetyl)-AMC) as substrate incubated for 2 hrs by fluorescence assay relative to control
Histone deacetylase 5 (Homo sapiens), sequence (Q9UQL6 whole entry): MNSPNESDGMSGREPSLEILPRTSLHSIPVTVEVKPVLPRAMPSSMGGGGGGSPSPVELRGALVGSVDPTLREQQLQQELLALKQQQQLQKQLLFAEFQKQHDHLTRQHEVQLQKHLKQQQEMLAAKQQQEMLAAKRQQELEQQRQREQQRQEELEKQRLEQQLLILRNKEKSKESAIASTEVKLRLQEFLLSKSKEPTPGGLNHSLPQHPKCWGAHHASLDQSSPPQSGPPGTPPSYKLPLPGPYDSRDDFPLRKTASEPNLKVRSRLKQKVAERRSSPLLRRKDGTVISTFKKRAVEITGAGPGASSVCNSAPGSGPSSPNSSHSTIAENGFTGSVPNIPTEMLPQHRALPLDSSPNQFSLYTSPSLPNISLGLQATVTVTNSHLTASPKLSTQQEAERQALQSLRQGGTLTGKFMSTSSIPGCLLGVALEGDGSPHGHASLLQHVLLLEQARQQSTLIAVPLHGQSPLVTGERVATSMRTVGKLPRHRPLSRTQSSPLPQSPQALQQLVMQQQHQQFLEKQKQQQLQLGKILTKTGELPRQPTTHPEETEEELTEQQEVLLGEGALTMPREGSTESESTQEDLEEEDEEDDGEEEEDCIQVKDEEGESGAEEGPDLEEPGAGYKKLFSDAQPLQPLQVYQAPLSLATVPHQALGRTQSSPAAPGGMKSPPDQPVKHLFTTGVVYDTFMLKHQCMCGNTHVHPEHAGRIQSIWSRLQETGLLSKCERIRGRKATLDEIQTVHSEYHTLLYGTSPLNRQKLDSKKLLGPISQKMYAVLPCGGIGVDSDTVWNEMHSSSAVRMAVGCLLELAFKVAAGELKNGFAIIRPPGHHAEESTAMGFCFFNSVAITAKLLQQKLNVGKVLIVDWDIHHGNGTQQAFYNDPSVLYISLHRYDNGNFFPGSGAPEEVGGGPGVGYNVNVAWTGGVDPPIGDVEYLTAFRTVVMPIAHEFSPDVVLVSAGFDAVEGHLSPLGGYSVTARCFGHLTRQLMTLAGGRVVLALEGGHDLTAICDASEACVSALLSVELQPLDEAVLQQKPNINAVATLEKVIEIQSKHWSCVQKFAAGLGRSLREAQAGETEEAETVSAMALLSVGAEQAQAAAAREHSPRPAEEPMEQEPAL

[10] = target: Histone deacetylase 4 (Homo sapiens) (UniProt P56524); experiment: Inhibition of human HDAC4 at 10 uM using Acetyl-Lys (trifluoroacetyl)-AMC) as substrate incubated for 2 hrs by fluorescence assay relative to control
Histone deacetylase 4 (Homo sapiens), sequence (P56524 whole entry): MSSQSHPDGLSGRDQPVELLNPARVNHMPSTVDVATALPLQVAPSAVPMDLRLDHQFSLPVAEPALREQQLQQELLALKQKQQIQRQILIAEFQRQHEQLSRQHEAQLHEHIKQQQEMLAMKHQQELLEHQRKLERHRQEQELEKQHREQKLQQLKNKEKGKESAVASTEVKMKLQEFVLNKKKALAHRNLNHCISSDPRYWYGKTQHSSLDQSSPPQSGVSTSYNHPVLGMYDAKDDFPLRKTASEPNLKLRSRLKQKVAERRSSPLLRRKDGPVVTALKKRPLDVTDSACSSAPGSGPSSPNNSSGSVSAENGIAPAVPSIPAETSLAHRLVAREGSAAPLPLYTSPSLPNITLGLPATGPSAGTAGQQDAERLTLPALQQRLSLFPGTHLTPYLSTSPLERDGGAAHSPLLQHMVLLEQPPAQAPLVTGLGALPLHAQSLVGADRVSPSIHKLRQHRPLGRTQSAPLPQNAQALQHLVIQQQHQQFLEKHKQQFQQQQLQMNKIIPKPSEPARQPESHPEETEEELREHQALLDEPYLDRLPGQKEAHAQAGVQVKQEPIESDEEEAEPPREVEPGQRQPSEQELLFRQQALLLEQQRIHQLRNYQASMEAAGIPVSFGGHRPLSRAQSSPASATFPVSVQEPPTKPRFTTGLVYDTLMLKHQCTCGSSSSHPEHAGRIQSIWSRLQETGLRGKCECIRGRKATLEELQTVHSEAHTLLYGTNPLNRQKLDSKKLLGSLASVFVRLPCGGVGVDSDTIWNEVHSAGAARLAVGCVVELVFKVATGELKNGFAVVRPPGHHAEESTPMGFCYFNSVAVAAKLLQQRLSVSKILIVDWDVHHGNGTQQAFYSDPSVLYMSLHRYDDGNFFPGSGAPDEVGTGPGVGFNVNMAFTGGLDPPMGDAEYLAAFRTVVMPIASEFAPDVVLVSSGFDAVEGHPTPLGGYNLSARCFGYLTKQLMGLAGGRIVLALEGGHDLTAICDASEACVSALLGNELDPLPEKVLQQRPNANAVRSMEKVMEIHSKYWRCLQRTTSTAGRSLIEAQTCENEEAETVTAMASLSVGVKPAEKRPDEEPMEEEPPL

Histone deacetylase 2 = Histone deacetylase 2 (Homo sapiens, UniProt Q92769); experiment: Inhibition of human HDAC2 using Arg-His-Lys-Lys (Ac) as substrate incubated for 2 hrs by fluorescence assay
MCF7 = experiment: Antiproliferative activity against human MCF7 cells incubated for 72 hrs by MTT assay; type: functional, cell-based; details: MCF7, 72 h
MOLM-14 = experiment: Antiproliferative activity against human MOLM14 cells incubated for 48 hrs by CellTiter-Glo luminescent cell viability assay; type: functional, cell-based; details: MOLM-14, 48 h
MDA-MB-231 [11] = experiment: Induction of apoptosis in human MDA-MB-231 cells assessed as early apoptotic cells at 3 uM incubated for 48 hrs by Annexin V-FITC/PI staining by flow cytometric analysis (reference value: 5%); type: functional
MDA-MB-231 [12] = experiment: Induction of apoptosis in human MDA-MB-231 cells assessed as late apoptotic cells at 3 uM incubated for 48 hrs by Annexin V-FITC/PI staining by flow cytometric analysis (reference value: 3%); type: functional
MDA-MB-231 [13] = experiment: Induction of apoptosis in human MDA-MB-231 cells assessed as late apoptotic cells at 6 uM incubated for 48 hrs by Annexin V-FITC/PI staining by flow cytometric analysis (reference value: 3%); type: functional
MDA-MB-231 [14] = experiment: Induction of apoptosis in human MDA-MB-231 cells assessed as necrotic cells at 9 uM incubated for 48 hrs by Annexin V-FITC/PI staining by flow cytometric analysis (reference value: 15%); type: functional
[15] = target: Protein deacetylase HDAC6 (Homo sapiens) (UniProt Q9UBN7); experiment: Inhibition of HDAC6 in human KMS-12-BM cells assessed as increase in Ac-Tubulin level at 2.5 to 10 uM incubated for 24 hrs by Western blot analysis; type: cell-based
KMS-12-BM [16] = experiment: Effect on human KMS-12-BM cells assessed as increase in H3K9Me2 level at 2.5 to 10 uM incubated for 24 hrs by Western blot analysis; type: functional, cell-based
KMS-12-BM [17] = experiment: Effect on human KMS-12-BM cells assessed as increase in cleaved PARP level at 10 uM incubated for 24 hrs by Western blot analysis; type: functional, cell-based
[18] = Kinetic solubility in pH 7.4 universal buffer measured after 3 hrs by UV spectroscopic analysis; type: physicochemical; details: read-out: Kinetic_solubility
[19] = Effective permeability of the compound at pH 7.4 measured after 6 hrs by PAMPA assay; type: ADME; details: read-out: Peff
[20] = Effective permeability of the compound at pH 7.4 measured after 16 hrs by PAMPA assay; type: ADME; details: read-out: Peff
[21] = Genotoxicity in Salmonella typhimurium TA98 in presence of S9 fraction incubated for 48 hrs by Ames test relative to control; type: toxicity, subcellular; details: salmonella enterica subsp. enterica serovar typhimurium, s9, 48 h
[22] = Cytotoxicity against human AC10 cells incubated for 24 hrs by CellTiter-Glo Cell Viability Assay; type: cell-based; details: AC10, 24 h
Plasmodium falciparum = experiment: microbe, parasite or virus in culture; type: functional, organism-based; details: K1, 48 h
Description: Antimalarial activity against ring stage Plasmodium falciparum K1 incubated for 48 hrs by Hoechst 33342 staining based fluorescence based assay

[23] = target: Polyamine deacetylase HDAC10 (Homo sapiens, UniProt Q969S8); experiment: Inhibition of human HDAC10 using Acetyl-Lys (trifluoroacetyl)-AMC) as substrate incubated for 2 hrs by fluorescence assay
Polyamine deacetylase HDAC10, sequence (Q969S8 whole entry): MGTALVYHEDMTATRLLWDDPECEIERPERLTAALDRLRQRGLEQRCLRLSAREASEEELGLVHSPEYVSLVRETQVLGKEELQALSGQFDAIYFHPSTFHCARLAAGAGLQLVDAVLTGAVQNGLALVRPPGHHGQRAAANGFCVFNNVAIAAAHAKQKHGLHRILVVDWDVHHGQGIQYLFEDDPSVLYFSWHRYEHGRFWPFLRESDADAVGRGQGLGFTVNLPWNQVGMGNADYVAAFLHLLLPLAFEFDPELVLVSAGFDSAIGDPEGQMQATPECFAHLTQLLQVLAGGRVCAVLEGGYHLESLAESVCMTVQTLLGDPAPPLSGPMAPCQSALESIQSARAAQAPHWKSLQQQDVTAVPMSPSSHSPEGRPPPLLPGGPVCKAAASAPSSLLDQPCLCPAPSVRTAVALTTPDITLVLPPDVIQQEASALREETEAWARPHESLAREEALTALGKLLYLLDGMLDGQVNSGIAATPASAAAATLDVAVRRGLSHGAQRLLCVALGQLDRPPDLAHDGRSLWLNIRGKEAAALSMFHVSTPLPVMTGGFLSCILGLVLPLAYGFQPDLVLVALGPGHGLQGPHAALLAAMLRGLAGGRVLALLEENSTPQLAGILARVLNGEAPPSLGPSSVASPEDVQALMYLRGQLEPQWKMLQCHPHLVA

Homo sapiens [24] = organism: Homo sapiens; experiment: Selectivity ratio of IC50 for human HDAC5 to IC50 for human HDAC6

Histone-lysine N-methyltransferase SUV39H1 (Homo sapiens), sequence (O43463 whole entry): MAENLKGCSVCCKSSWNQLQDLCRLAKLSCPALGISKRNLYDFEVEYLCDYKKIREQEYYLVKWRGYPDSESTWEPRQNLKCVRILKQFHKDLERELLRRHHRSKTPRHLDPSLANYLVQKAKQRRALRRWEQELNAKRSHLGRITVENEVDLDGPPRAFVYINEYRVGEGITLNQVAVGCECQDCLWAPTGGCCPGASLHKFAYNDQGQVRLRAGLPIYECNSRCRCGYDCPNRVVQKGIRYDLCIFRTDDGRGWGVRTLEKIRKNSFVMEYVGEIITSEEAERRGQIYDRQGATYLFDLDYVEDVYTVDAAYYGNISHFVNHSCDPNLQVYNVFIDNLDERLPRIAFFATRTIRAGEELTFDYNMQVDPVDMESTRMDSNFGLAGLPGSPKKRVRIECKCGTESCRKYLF

COc1ccc(CN2CCC(Nc3nc(Nc4ccc(NC(=O)CCCCCCC(=O)NO)cc4)nc4cc(OC)c(OC)cc34)CC2)cc1
inhibition [1]: 14%
inhibition [2]: 19%
inhibition [3]: inactive
inhibition [4]: 37%
Ratio IC50 (Homo sapiens [5]): 485
Ratio IC50 (Homo sapiens [6]): 435
Ratio IC50 (Homo sapiens [7]): 13
inhibition [8]: inactive
inhibition [9]: 25%
inhibition [10]: 20%
IC50 (Histone deacetylase 2): 1.13 µM
EC50 (MCF7): 7.3 µM
EC50 (MOLM-14): 2.8 µM
Activity (MDA-MB-231 [11]): 23%
Activity (MDA-MB-231 [12]): 15%
Activity (MDA-MB-231 [13]): 15%
Activity (MDA-MB-231 [14]): 8%
inhibition [15]: Active
Activity (KMS-12-BM [16]): Active
Activity (KMS-12-BM [17]): Active
solubility kinetic at 3 h [18]: 4.6 µM (≈ 3.15 µg/mL)
Papp at 6 h [19]: 218 nm/s
Papp at 16 h [20]: 79 nm/s
Activity [21]: Non-Toxic
EC50 [22]: 94 µM
IC50 (Plasmodium falciparum): 0.508 µM
IC50 [23]: 2.69 µM
Ratio IC50 (Homo sapiens [24]): > 3000
